The source of these data is patent publication US8470812B2, “Substituted benzo-pyrimido-tetrazolo-diazepine compounds” (ArQule, Inc., priority 2009, dated 2013).

In general, melting point refers to the temperature of the solid-liquid transition.

Structures can show the parent of a compound that is named as a salt.

One data set concerns the target CaMK2δ (Homo sapiens, UniProt Q13557). As to the kind of experiment: CaMKII kinase activity, mobility shift assay (MSA). In kind it is biochemical. As to conditions: 10 μM compound; ATP 5, GS peptide 1 uM; read-out: CaMK2δ inh. @ 10 μM (%). On the procedure: (§1) CAMKII and CDK7 activity was assayed using a mobility shift assay (MSA). Test inhibitors and controls (staurosporine) were prepared at 4× the desired final concentration. Test compound (5.0 μL), 4× substrate/ATP/metal solution (5.0 μL), and 2× kinase (10 μL) were added to each well of a reaction plate and incubated for 1 hr at room temperature. The assay components were diluted in assay buffer (20 mM HEPES pH 7.5, 0.01% Triton X-100, 2 mM DTT). To terminate the reaction, 60 μL of termination buffer (QuickScout Screening Assist MSA, Carna Biosciences) was added to each well. The reaction mixture was applied to the LabChip3000 system (Caliper Life Sciences) and the product and substrate peptide peaks were separated and quantified.

The next data set has as its target CaMK2α (Homo sapiens, UniProt Q9UQM7). As to the kind of experiment: CaMKII kinase activity, mobility shift assay (MSA). As to conditions: 10 μM compound; ATP 50, GS peptide 1 uM; read-out: CaMK2α inh. @ 10 μM (%). The class given is biochemical. How it is done: as §1
Another data set deals with CaMK2γ (Homo sapiens, UniProt Q13555). As to the kind of experiment: CaMKII kinase activity, mobility shift assay (MSA). The class given is biochemical. To be noted: 10 μM compound; ATP 25, GS peptide 1 uM; read-out: CaMK2γ inh. @ 10 μM (%). How it is done:
as §1

In a further data set the target is CaMK2β (Homo sapiens, UniProt Q13554). As to the kind of experiment: CaMKII kinase activity, mobility shift assay (MSA). The class given is biochemical. To be noted: 10 μM compound; ATP 25, GS peptide 1 uM; read-out: CaMK2β inh. @ 10 μM (%). On the procedure: as §1
The test system of the next data set is DLD-1 cancer cells. As to the kind of experiment: MTS assay, cell growth inhibition. In kind it is cell-based. As to conditions: DLD-1 cells, 72 h incubation; test concentration not given. On the procedure:
(§2) Cells were maintained at 37° C., 5% CO2 in DMEM media supplemented with 1% fetal bovine serum, penicillin/streptomycin and fungizone (Invitrogen). Cells were seeded into 96-well tissue culture plates at 3000 per well and cultured at 37° C. for 18 hours. Test compounds were dissolved and diluted to 300× in DMSO then diluted 1:40 in DMEM. Cells were incubated with test compounds for 72 hours followed by incubation with tetrazolium compound (3-(4,5-dimethylthiazol-2-yl)-5-(3-carboxymethoxyphenyl)-2-(4-sulfophenyl)-2H-tetrazolium, inner salt; MTS) and the electron coupling reagent, phenazine methosulfate (PMS) for 4 hours. […] The ability of compounds to inhibit cell growth in this assay is correlated with the reduction of dehydrogenase enzyme activity found in metabolically active cells. The measurement of the absorbance of the formazan was assessed using a Victor (Perkin Elmer) microplate reader at 492 nm. The calculated IC50 value is the concentration of the test compound that causes a 50% decrease in the absorbance. Selected compounds have been tested in DLD-1 and MDA-MB-231 cancer cells.

The test system of the next data set is MDA-MB-231 cancer cells. As to the kind of experiment: MTS assay, cell growth inhibition. The class given is cell-based. As to conditions: MDA-MB-231 cells, 72 h incubation; test concentration not given. On the procedure: as §2
In general terms: Formazan colour is commonly taken as a measure of viable cells.

In another data set the target is CDK7 (Homo sapiens, UniProt P50613). As to the kind of experiment: CDK7 kinase activity, mobility shift assay (MSA). In kind it is biochemical. As to conditions: 10 μM compound; ATP 50, CTD3 peptide 1 uM; read-out: CDK7 inh. @ 10 μM (%). On the procedure:
as §1

CDK7, sequence (P50613 whole entry, species assumed): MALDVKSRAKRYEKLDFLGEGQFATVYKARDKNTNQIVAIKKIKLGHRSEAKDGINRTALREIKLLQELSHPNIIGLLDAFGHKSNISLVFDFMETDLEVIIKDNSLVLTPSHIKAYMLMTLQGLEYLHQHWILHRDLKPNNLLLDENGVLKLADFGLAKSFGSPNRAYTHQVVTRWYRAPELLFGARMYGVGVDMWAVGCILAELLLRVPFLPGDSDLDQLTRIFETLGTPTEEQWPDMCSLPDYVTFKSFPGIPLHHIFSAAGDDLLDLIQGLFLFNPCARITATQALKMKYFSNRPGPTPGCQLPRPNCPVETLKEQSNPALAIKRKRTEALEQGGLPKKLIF
CDK7, sequence (P51946 whole entry partner, species assumed): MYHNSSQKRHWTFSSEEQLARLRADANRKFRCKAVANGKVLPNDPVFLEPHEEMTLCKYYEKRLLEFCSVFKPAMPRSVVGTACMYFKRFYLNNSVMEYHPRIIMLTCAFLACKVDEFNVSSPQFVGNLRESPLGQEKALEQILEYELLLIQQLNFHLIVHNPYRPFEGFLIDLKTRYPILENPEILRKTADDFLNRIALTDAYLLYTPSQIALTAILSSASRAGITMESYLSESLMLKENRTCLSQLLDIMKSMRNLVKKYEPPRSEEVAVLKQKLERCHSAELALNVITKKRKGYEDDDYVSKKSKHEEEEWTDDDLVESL
CDK7, sequence (P51948 whole entry partner, species assumed): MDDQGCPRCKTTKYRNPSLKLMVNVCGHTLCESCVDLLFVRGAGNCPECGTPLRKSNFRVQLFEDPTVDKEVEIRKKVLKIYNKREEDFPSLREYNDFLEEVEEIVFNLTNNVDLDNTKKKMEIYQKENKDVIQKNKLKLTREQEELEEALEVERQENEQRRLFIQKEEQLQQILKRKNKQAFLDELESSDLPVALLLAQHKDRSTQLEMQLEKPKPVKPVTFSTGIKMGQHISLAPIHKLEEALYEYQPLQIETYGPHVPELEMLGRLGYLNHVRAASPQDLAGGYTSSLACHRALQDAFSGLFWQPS

`CN1CCN(c2ncc3c(n2)N(Cc2ccc(F)c(F)c2)c2ccccc2-n2nnnc2-3)CC1` (as salt: HCl) [Compound 14, 9-(3,4-difluorobenzyl)-11-(4-methylpiperazin-1-yl)-9H-pyrimido[5,4-c]tetrazolo[1,5-a][1,5]benzodiazepine] came in with a melting point of 180 to 191 °C.
In the case of `CN1CCN(c2ncc3c(n2)N(Cc2ccc(F)c(F)c2)c2ccccc2-n2nnnc2-3)CC1` [Compound 14, 9-(3,4-difluorobenzyl)-11-(4-methylpiperazin-1-yl)-9H-pyrimido[5,4-c]tetrazolo[1,5-a][1,5]benzodiazepine], the inhibition at 10 µM on CaMK2δ came out at 96%; on CaMK2α it was 96%; at CaMK2γ it was 80%; at CaMK2β, 88%. In addition, in the data set with DLD-1 cancer cells, the “DLD-1, MTS, 72 h (% Inhibition)” value is recorded as 49%. In addition, in the data set with MDA-MB-231 cancer cells, the “MDA-MB-231, MTS, 72 h (% Inhibition)” value amounted to 58%.
With `Fc1ccc(CN2c3ccccc3-n3nnnc3-c3cnc(NCc4cccnc4)nc32)cc1F` [Compound 16, 9-(3,4-difluorobenzyl)-N-(pyridin-3-ylmethyl)-9H-pyrimido[5,4-c]tetrazolo[1,5-a][1,5]benzodiazepin-11-amine], the inhibition at 10 µM is 65% on CaMK2δ, 67% on CaMK2α, 11% on CaMK2γ and 41% on CaMK2β. In addition, the “DLD-1, MTS, 72 h (% Inhibition)” value with DLD-1 cancer cells turned out to be 38%. In the data set on MDA-MB-231 cancer cells, the “MDA-MB-231, MTS, 72 h (% Inhibition)” value stood at 30%.
With `Fc1ccc(CN2c3ccccc3-n3nnnc3-c3cnc(NCCN4CCOCC4)nc32)cc1F` [Compound 18, 9-(3,4-difluorobenzyl)-N-(2-morpholin-4-ylethyl)-9H-pyrimido[5,4-c]tetrazolo[1,5-a][1,5]benzodiazepin-11-amine], the inhibition at 10 µM at CaMK2δ was determined as 32%; at CaMK2α, 42%; on CaMK2γ it was 12%; on CaMK2β, 23%; on CDK7, 84%.
Take `CCCNc1ncc2c(n1)Nc1ccccc1-n1nnnc1-2` [Compound 41, N-propyl-9H-pyrimido[5,4-c]tetrazolo[1,5-a][1,5]benzodiazepin-11-amine]: in the data set with DLD-1 cancer cells, the “DLD-1, MTS, 72 h (% Inhibition)” value is on record as 97%. Moreover, the “MDA-MB-231, MTS, 72 h (% Inhibition)” value with MDA-MB-231 cancer cells is recorded as 98%.
The corresponding values for `CCN1CCN(c2ncc3c(n2)Nc2ccccc2-n2nnnc2-3)CC1` [Compound 43, 11-(4-ethylpiperazin-1-yl)-9H-pyrimido[5,4-c]tetrazolo[1,5-a][1,5]benzodiazepine] are 32% and 90%.
`c1ccc2c(c1)Nc1nc(NC3CCCC3)ncc1-c1nnnn1-2` [Compound 45, N-cyclopentyl-9H-pyrimido[5,4-c]tetrazolo[1,5-a][1,5]benzodiazepin-11-amine]: the “DLD-1, MTS, 72 h (% Inhibition)” value in the data set with DLD-1 cancer cells is 95%. Further, the “MDA-MB-231, MTS, 72 h (% Inhibition)” value with MDA-MB-231 cancer cells was 76%.
The matching figures for `Clc1ccccc1CNc1ncc2c(n1)Nc1ccccc1-n1nnnc1-2` [Compound 48, N-(2-chlorobenzyl)-9H-pyrimido[5,4-c]tetrazolo[1,5-a][1,5]benzodiazepin-11-amine]: 97% and 51%.
The corresponding values for `CC(Nc1ncc2c(n1)Nc1ccccc1-n1nnnc1-2)c1ccccc1` (centres unmarked) [Compound 51, N-(1-phenylethyl)-9H-pyrimido[5,4-c]tetrazolo[1,5-a][1,5]benzodiazepin-11-amine] are 96% and 98%.
The matching figures for `CC(Nc1ncc2c(n1)Nc1ccccc1-n1nnnc1-2)c1ccc(Cl)cc1` (centres unmarked) [Compound 52, N-[1-(4-chlorophenyl)ethyl]-9H-pyrimido[5,4-c]tetrazolo[1,5-a][1,5]benzodiazepin-11-amine]: 97% and 98%.
Regarding `COc1ccc(CNc2ncc3c(n2)Nc2ccccc2-n2nnnc2-3)cc1OC` [Compound 57, N-(3,4-dimethoxybenzyl)-9H-pyrimido[5,4-c]tetrazolo[1,5-a][1,5]benzodiazepin-11-amine], the “DLD-1, MTS, 72 h (% Inhibition)” value in the data set with DLD-1 cancer cells came to 97%. The “MDA-MB-231, MTS, 72 h (% Inhibition)” value in the data set on MDA-MB-231 cancer cells is recorded as 39%.
For the compound `Clc1ccc(CNc2ncc3c(n2)Nc2ccccc2-n2nnnc2-3)cc1` [Compound 58, N-(4-chlorobenzyl)-9H-pyrimido[5,4-c]tetrazolo[1,5-a][1,5]benzodiazepin-11-amine], the “DLD-1, MTS, 72 h (% Inhibition)” value in the data set on DLD-1 cancer cells is on record as 97%. Moreover, the “MDA-MB-231, MTS, 72 h (% Inhibition)” value in the data set on MDA-MB-231 cancer cells stood at 98%.
The matching figures for `Fc1ccc(F)c(CNc2ncc3c(n2)Nc2ccccc2-n2nnnc2-3)c1` [Compound 59, N-(2,5-difluorobenzyl)-9H-pyrimido[5,4-c]tetrazolo[1,5-a][1,5]benzodiazepin-11-amine]: 97% and 71%.
As to `CC(C)CC(C)Nc1ncc2c(n1)Nc1ccccc1-n1nnnc1-2` (centres unmarked) [Compound 63, N-(1,3-dimethylbutyl)-9H-pyrimido[5,4-c]tetrazolo[1,5-a][1,5]benzodiazepin-11-amine], the “DLD-1, MTS, 72 h (% Inhibition)” value in the data set on DLD-1 cancer cells worked out at 90%. Besides, the “MDA-MB-231, MTS, 72 h (% Inhibition)” value in the data set on MDA-MB-231 cancer cells turned out to be 32%.
The matching figures for `CC1CCCN1c1ncc2c(n1)Nc1ccccc1-n1nnnc1-2` (centres unmarked) [Compound 68, 11-(2-methylpyrrolidin-1-yl)-9H-pyrimido[5,4-c]tetrazolo[1,5-a][1,5]benzodiazepine]: 97% and 75%.
The matching figures for `COc1cc(CNc2ncc3c(n2)Nc2ccccc2-n2nnnc2-3)cc(OC)c1OC` [Compound 72, N-(3,4,5-trimethoxybenzyl)-9H-pyrimido[5,4-c]tetrazolo[1,5-a][1,5]benzodiazepin-11-amine]: 97% and 78%.
Take `c1ccc2c(c1)CCCC2Nc1ncc2c(n1)Nc1ccccc1-n1nnnc1-2` (centres unmarked) [Compound 77, N-(1,2,3,4-tetrahydronaphthalen-1-yl)-9H-pyrimido[5,4-c]tetrazolo[1,5-a][1,5]benzodiazepin-11-amine]: in the data set on DLD-1 cancer cells, the “DLD-1, MTS, 72 h (% Inhibition)” value is given as 97%. Also, the “MDA-MB-231, MTS, 72 h (% Inhibition)” value with MDA-MB-231 cancer cells was 86%.
The corresponding values for `c1ccc2c(c1)Nc1nc(NC3CCC3)ncc1-c1nnnn1-2` [Compound 85, N-cyclobutyl-9H-pyrimido[5,4-c]tetrazolo[1,5-a][1,5]benzodiazepin-11-amine] are 97% and 99%.
Turning to `Fc1ccccc1CNc1ncc2c(n1)Nc1ccccc1-n1nnnc1-2` [Compound 88, N-(2-fluorobenzyl)-9H-pyrimido[5,4-c]tetrazolo[1,5-a][1,5]benzodiazepin-11-amine], in the data set on DLD-1 cancer cells, the “DLD-1, MTS, 72 h (% Inhibition)” value was 96%. Further, the “MDA-MB-231, MTS, 72 h (% Inhibition)” value in the data set on MDA-MB-231 cancer cells was found to be 41%.
The matching figures for `CCC(C)CNc1ncc2c(n1)Nc1ccccc1-n1nnnc1-2` (centres unmarked) [Compound 95, N-(2-methylbutyl)-9H-pyrimido[5,4-c]tetrazolo[1,5-a][1,5]benzodiazepin-11-amine]: 97% and 99%.
Regarding `c1ccc(CCNc2ncc3c(n2)Nc2ccccc2-n2nnnc2-3)nc1` [Compound 98, N-(2-pyridin-2-ylethyl)-9H-pyrimido[5,4-c]tetrazolo[1,5-a][1,5]benzodiazepin-11-amine], the “DLD-1, MTS, 72 h (% Inhibition)” value in the data set on DLD-1 cancer cells worked out at 76%. Besides, the “MDA-MB-231, MTS, 72 h (% Inhibition)” value in the data set with MDA-MB-231 cancer cells was 41%.
With `COc1ccc(OC)c(CNc2ncc3c(n2)Nc2ccccc2-n2nnnc2-3)c1` [Compound 103, N-(2,5-dimethoxybenzyl)-9H-pyrimido[5,4-c]tetrazolo[1,5-a][1,5]benzodiazepin-11-amine], the “DLD-1, MTS, 72 h (% Inhibition)” value in the data set with DLD-1 cancer cells is 97%. Also, in the data set with MDA-MB-231 cancer cells, the “MDA-MB-231, MTS, 72 h (% Inhibition)” value is on record as 97%.
Turning to `CCCN(C)c1ncc2c(n1)Nc1ccccc1-n1nnnc1-2` [Compound 104, N-methyl-N-propyl-9H-pyrimido[5,4-c]tetrazolo[1,5-a][1,5]benzodiazepin-11-amine], the “DLD-1, MTS, 72 h (% Inhibition)” value in the data set on DLD-1 cancer cells was determined as 97%. In the data set on MDA-MB-231 cancer cells, the “MDA-MB-231, MTS, 72 h (% Inhibition)” value is 99%.
